pEC50: −log10 of the molar value. Read-outs that look alike come from different tables or passages of the source. Numbered stars: 1 amine (or outer) side, 2 acyl side, 3 side chain; on linkers, the order of the positions; unused ones are H or OH. Square brackets hold non-standard residues; d marks the D form. Side chains are listed from the residue outwards. Peptide text beside a SMILES is read from it. * marks the point of attachment. C18 diacid = O=C(O)CCCCCCCCCCCCCCCCC(=O)*; γGlu = O=C(O)[C@H](CCC(=O)[*:2])N[*:1]; Stearoyl = CCCCCCCCCCCCCCCCCC(=O)*; αMeF = C[C@](N)(Cc1ccccc1)C(=O)O; αMeK = C[C@](N)(CCCCN)C(=O)O; Lauroyl = CCCCCCCCCCCC(=O)*; αMeS = C[C@](N)(CO)C(=O)O; AEEA = NCCOCCOCC(=O)O; Aib = CC(C)(N)C(=O)O
What was measured:
Assay type in all cases: cell-based
[1] = target: T1, human glucagon receptor (GCGR) (Homo sapiens, UniProt P47871); assay: cAMP assay, human GCGR cells; conditions: Table 9, bis-lipidated peptides
T1 construct: expressed in transfected cells; host or cells: HEK293 cells or CHO cells
Procedure: (§1) Sample dilutions are made in duplicate.
(§2) A frozen cryo-vial of cells expressing the receptor of interest is thawed rapidly in a water-bath, transferred to pre-warmed assay buffer and spun at 240×g for 5 minutes. Cells are re-suspended in assay buffer at a batch-dependent optimized concentration (e.g. hGCGR cells at 2×10^5 cells/ml, hGLP-1R and hGIPR cells at 1×10^5 cells/ml).
(§3) To this, 5 μL cell suspension is added and the plates incubated at room temperature for 30 minutes.
(§4) cAMP levels are measured using a commercially available cAMP dynamic 2 HTRF kit (Cisbio, Cat #62AM4PEJ), following the two step protocol as per manufacturer's recommendations. In brief; anti-cAMP cryptate (donor fluorophore) and cAMP-d2 (acceptor fluorophore) are made up separately by diluting each 1/20 in conjugate & lysis buffer provided in the kit. 5 μL anti-cAMP cryptate is added to wells of the assay plate, and 5 μL cAMP-d2 is added to wells except non-specific binding (NSB) wells, to which conjugate and lysis buffer are added. […] EC50 values of the synthetic peptides determined in cAMP assays are then determined.
(§5) Data is transformed to % Delta F as described in the manufacturer's guidelines and analyzed by 4-parameter logistic fit to determine EC50 values. […] To compare the balance of activities at the GLP-1R and GCGR between different peptides and across different conditions, these can be correlated, where the EC50's are related to those of comparator peptides.

[2] = target: T2, human glucose-dependent insulinotropic peptide receptor (GIPR) (Homo sapiens, UniProt P48546); assay: cAMP assay, human GIPR cells; conditions: Table 9, bis-lipidated peptides
T2 construct: expressed in transfected cells; host or cells: HEK293 cells or CHO cells
T2 sequence (P48546 22-466): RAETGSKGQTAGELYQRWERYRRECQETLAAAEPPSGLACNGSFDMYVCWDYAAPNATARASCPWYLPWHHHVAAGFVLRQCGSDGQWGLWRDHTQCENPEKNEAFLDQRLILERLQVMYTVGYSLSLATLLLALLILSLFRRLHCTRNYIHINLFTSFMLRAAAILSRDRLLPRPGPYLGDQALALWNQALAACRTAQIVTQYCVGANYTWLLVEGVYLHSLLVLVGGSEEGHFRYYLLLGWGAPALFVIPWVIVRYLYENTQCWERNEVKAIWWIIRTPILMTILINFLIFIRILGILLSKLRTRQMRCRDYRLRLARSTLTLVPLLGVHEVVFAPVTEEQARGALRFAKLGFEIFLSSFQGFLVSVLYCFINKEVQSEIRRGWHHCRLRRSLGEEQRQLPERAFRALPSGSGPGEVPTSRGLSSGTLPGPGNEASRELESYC
Procedure: as §1, §2, §3, §4, §5

[3] = target: T3, human GLP-1 receptor (GLP-1R) (Homo sapiens, UniProt P43220); assay: cAMP assay, human GLP-1R cells; conditions: for EC50: mean of n1 and n2
T3 construct: expressed in transfected cells; host or cells: HEK293 cells or CHO cells
Procedure, shortened: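 Peptide-stimulated cAMP measured by two-step HTRF after a 30 min room-temperature incubation with receptor-expressing cells (hGLP-1R, hGIPR at 1×10^5 cells/ml; hGCGR at 2×10^5 cells/ml). Duplicate dilutions; EC50 from 4-parameter logistic fit of % Delta F.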

[4] = cAMP activity, read-out: Mean pM GLP-1R
[5] = Table 11, tris-lipidated peptides, read-out: Primary assay EC50 Mean pM GLP-1R

T3 sequence (P43220 24-463): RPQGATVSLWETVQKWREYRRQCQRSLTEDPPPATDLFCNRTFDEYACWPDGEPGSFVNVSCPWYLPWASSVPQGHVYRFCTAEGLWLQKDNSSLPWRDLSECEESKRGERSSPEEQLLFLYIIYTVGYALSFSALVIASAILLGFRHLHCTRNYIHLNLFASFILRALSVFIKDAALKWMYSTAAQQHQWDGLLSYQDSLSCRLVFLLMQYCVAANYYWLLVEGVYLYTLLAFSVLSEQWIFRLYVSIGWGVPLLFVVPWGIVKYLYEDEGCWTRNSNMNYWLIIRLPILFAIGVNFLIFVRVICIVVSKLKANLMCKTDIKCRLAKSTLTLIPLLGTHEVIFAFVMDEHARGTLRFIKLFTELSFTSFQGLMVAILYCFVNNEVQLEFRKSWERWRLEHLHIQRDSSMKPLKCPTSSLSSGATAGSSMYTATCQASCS
T1 sequence (P47871 26-477): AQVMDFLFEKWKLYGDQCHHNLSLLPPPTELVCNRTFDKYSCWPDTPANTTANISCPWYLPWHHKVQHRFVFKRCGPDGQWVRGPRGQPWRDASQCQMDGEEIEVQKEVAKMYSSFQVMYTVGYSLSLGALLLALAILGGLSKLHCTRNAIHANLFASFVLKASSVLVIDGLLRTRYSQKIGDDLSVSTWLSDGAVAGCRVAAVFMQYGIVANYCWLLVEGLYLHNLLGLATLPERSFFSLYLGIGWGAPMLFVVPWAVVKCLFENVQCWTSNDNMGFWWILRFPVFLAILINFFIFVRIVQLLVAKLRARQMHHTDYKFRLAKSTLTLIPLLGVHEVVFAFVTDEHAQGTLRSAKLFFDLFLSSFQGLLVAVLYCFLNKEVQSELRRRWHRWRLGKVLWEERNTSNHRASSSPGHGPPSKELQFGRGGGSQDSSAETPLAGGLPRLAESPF

In the case of `CCCCCCCCCCCCCCCCCC(=O)N[C@@H](CCC(=O)NCCOCCOCC(=O)NCCOCCOCC(=O)NCCCC[C@H](NC(=O)[C@H](C)NC(=O)[C@@H](NC(=O)[C@](C)(Cc1ccccc1)NC(=O)[C@H](CCC(=O)O)NC(=O)[C@](C)(CCCCN)NC(=O)[C@H](C)NC(=O)[C@H](C)NC(=O)[C@H](CCC(=O)O)NC(=O)CNC(=O)[C@H](CCC(=O)O)NC(=O)[C@H](CC(C)C)NC(=O)[C@H](CCCCNC(=O)COCCOCCNC(=O)COCCOCCNC(=O)CC[C@H](NC(=O)CCCCCCCCCCCCCCCCC)C(=O)O)NC(=O)[C@H](CO)NC(=O)[C@](C)(CO)NC(=O)[C@@H](NC(=O)[C@H](CC(=O)O)NC(=O)[C@H](CO)NC(=O)[C@@H](NC(=O)[C@](C)(Cc1ccccc1)NC(=O)[C@H](CO)NC(=O)CNC(=O)[C@H](CCC(=O)O)NC(=O)C(C)(C)NC(=O)[C@@H](N)Cc1c[nH]cn1)[C@@H](C)O)C(C)C)[C@@H](C)CC)C(=O)N[C@H](C(=O)N[C@H](C(=O)N[C@@H](CCC(=O)O)C(=O)NCC(=O)NCC(N)=O)C(C)C)C(C)C)C(=O)O` [compound 410] (H-H[Aib]EGS[αMeF]TSDV[αMeS]SK([AEEA-AEEA-γGlu-Stearoyl])LEGEAA[αMeK]E[αMeF]IAK([AEEA-AEEA-γGlu-Stearoyl])VVEGG-NH2; N-terminus assumed), the pEC50 ([1]; first replicate, read-out: Primary assay EC50 Gluc-R (n1)) was ≤ 7.67, the pEC50 ([1]; second replicate, read-out: Primary assay EC50 Gluc-R (n2)) was ≤ 7.67 and the pEC50 ([2]; first replicate, read-out: Primary assay EC50 GIP-R (n1)) was ≤ 7.67. The pEC50 ([2]; second replicate, read-out: Primary assay EC50 GIP-R (n2)) was ≤ 7.67.
In the case of `CC[C@H](C)[C@H](NC(=O)[C@](C)(Cc1ccccc1)NC(=O)[C@H](CCC(=O)O)NC(=O)[C@](C)(CCCCN)NC(=O)[C@H](CCCCNC(=O)COCCOCCNC(=O)COCCOCCNC(=O)CC[C@H](NC(=O)CCCCCCCCCCCCCCCCC(=O)O)C(=O)O)NC(=O)[C@H](C)NC(=O)[C@H](CCC(=O)O)NC(=O)CNC(=O)[C@H](CCC(=O)O)NC(=O)[C@H](CC(C)C)NC(=O)[C@](C)(Cc1ccccc1)NC(=O)[C@H](CO)NC(=O)[C@](C)(CO)NC(=O)[C@@H](NC(=O)[C@H](CC(=O)O)NC(=O)[C@H](CO)NC(=O)[C@@H](NC(=O)[C@](C)(Cc1ccccc1)NC(=O)[C@H](CO)NC(=O)CNC(=O)[C@H](CCC(=O)O)NC(=O)C(C)(C)NC(=O)[C@@H](N)Cc1c[nH]cn1)[C@@H](C)O)C(C)C)C(=O)N[C@@H](C)C(=O)N[C@@](C)(Cc1ccccc1)C(=O)N[C@H](C(=O)N[C@H](C(=O)N[C@@](C)(CCCCN)C(=O)NCC(=O)NCC(N)=O)C(C)C)C(C)C` [compound 110] (H-H[Aib]EGS[αMeF]TSDV[αMeS]S[αMeF]LEGEAK([AEEA-AEEA-γGlu-C18 diacid])[αMeK]E[αMeF]IA[αMeF]VV[αMeK]GG-NH2; N-terminus assumed), the EC50 [3, 4] was 62 pM.
With `CCCCCCCCCCCC(=O)N[C@@H](CCC(=O)NCCOCCOCC(=O)NCCOCCOCC(=O)NCCCC[C@H](NC(=O)CNC(=O)[C@H](CCC(=O)O)NC(=O)[C@H](CC(C)C)NC(=O)[C@H](Cc1ccc(O)cc1)NC(=O)[C@H](CO)NC(=O)[C@H](CO)NC(=O)[C@H](CCCCNC(=O)COCCOCCNC(=O)COCCOCCNC(=O)CC[C@H](NC(=O)CCCCCCCCCCC)C(=O)O)NC(=O)[C@H](CC(=O)O)NC(=O)[C@H](CO)NC(=O)[C@@H](NC(=O)[C@](C)(Cc1ccccc1)NC(=O)[C@H](CO)NC(=O)CNC(=O)[C@H](CCC(=O)O)NC(=O)C(C)(C)NC(=O)[C@@H](N)Cc1c[nH]cn1)[C@@H](C)O)C(=O)N[C@@H](C)C(=O)N[C@@H](C)C(=O)N[C@@](C)(CCCCN)C(=O)N[C@@H](CCC(=O)O)C(=O)N[C@@H](Cc1ccccc1)C(=O)N[C@H](C(=O)N[C@@H](C)C(=O)N[C@@H](CCCCNC(=O)COCCOCCNC(=O)COCCOCCNC(=O)CC[C@H](NC(=O)CCCCCCCCCCC)C(=O)O)C(=O)N[C@H](C(=O)N[C@H](C(=O)N[C@@H](CCC(=O)O)C(=O)NCC(=O)NCC(N)=O)C(C)C)C(C)C)[C@@H](C)CC)C(=O)O` [compound 456] (H-H[Aib]EGS[αMeF]TSDK([AEEA-AEEA-γGlu-Lauroyl])SSYLEGK([AEEA-AEEA-γGlu-Lauroyl])AA[αMeK]EFIAK([AEEA-AEEA-γGlu-Lauroyl])VVEGG-NH2; N-terminus assumed) the EC50 [3, 5] was 170 pM, the pEC50 ([3]; Table 11, tris-lipidated peptides, replicate n1, read-out: Primary assay EC50 GLP-1R n1) was 9.94 and the pEC50 ([3]; Table 11, tris-lipidated peptides, replicate n2, read-out: Primary assay EC50 GLP-1R n2) was 9.65.
`CCCCCCCCCCCC(=O)N[C@@H](CCC(=O)NCCOCCOCC(=O)NCCOCCOCC(=O)NCCCC[C@H](NC(=O)[C@H](CC(=O)O)NC(=O)[C@H](CO)NC(=O)[C@@H](NC(=O)[C@](C)(Cc1ccccc1)NC(=O)[C@H](CO)NC(=O)CNC(=O)[C@H](CCC(=O)O)NC(=O)C(C)(C)NC(=O)[C@@H](N)Cc1c[nH]cn1)[C@@H](C)O)C(=O)N[C@@H](CO)C(=O)N[C@@H](CO)C(=O)N[C@@H](Cc1ccc(O)cc1)C(=O)N[C@@H](CC(C)C)C(=O)N[C@@H](CCC(=O)O)C(=O)NCC(=O)N[C@@H](CCC(=O)O)C(=O)N[C@@H](C)C(=O)N[C@@H](C)C(=O)N[C@@](C)(CCCCN)C(=O)N[C@@H](CCCCNC(=O)COCCOCCNC(=O)COCCOCCNC(=O)CC[C@H](NC(=O)CCCCCCCCCCC)C(=O)O)C(=O)N[C@@H](Cc1ccccc1)C(=O)N[C@H](C(=O)N[C@@H](C)C(=O)N[C@@H](Cc1ccccc1)C(=O)N[C@@H](CCCCNC(=O)COCCOCCNC(=O)COCCOCCNC(=O)CC[C@H](NC(=O)CCCCCCCCCCC)C(=O)O)C(=O)N[C@H](C(=O)N[C@@H](CCC(=O)O)C(=O)NCC(=O)NCC(N)=O)C(C)C)[C@@H](C)CC)C(=O)O` [compound 474] (H-H[Aib]EGS[αMeF]TSDK([AEEA-AEEA-γGlu-Lauroyl])SSYLEGEAA[αMeK]K([AEEA-AEEA-γGlu-Lauroyl])FIAFK([AEEA-AEEA-γGlu-Lauroyl])VEGG-NH2) was tested, and the EC50 [3, 5] was 290 pM.
Compound `CC(C)[C@H](NC(=O)[C@H](CCC(=O)O)NC(=O)[C@H](CO)NC(=O)[C@H](CO)NC(=O)[C@](C)(Cc1ccccc1)NC(=O)[C@H](CO)NC(=O)CNC(=O)[C@H](CCC(=O)O)NC(=O)C(C)(C)NC(=O)[C@@H](N)Cc1c[nH]cn1)C(=O)N[C@@H](CO)C(=O)N[C@@H](CO)C(=O)N[C@@](C)(Cc1ccccc1)C(=O)N[C@H](C(=O)N[C@@H](CCC(=O)O)C(=O)NCC(=O)N[C@@H](CCC(=O)O)C(=O)N[C@@H](C)C(=O)N[C@@H](C)C(=O)N[C@@](C)(CCCCN)C(=O)N[C@@H](CCC(=O)O)C(=O)N[C@@](C)(Cc1ccccc1)C(=O)N[C@H](C(=O)N[C@@H](C)C(=O)N[C@@](C)(Cc1ccccc1)C(=O)N[C@H](C(=O)N[C@H](C(=O)N[C@@](C)(CCCCN)C(=O)NCC(=O)NCC(N)=O)C(C)C)C(C)C)C(C)C)C(C)C` [compound 12] (H-H[Aib]EGS[αMeF]SSEVSS[αMeF]VEGEAA[αMeK]E[αMeF]VA[αMeF]VV[αMeK]GG-NH2; N-terminus assumed) has an EC50 [3, 4] of 2100 pM.
With `CC[C@H](C)[C@H](NC(=O)[C@](C)(Cc1ccccc1)NC(=O)[C@H](CCC(=O)O)NC(=O)[C@](C)(CCCCN)NC(=O)[C@H](C)NC(=O)[C@H](C)NC(=O)[C@H](CCC(=O)O)NC(=O)CNC(=O)[C@H](CCC(=O)O)NC(=O)[C@H](CC(C)C)NC(=O)[C@](C)(Cc1ccccc1)NC(=O)[C@H](CO)NC(=O)[C@](C)(CO)NC(=O)[C@@H](NC(=O)[C@H](CC(=O)O)NC(=O)[C@H](CCC(=O)O)NC(=O)[C@@H](NC(=O)[C@](C)(Cc1ccccc1)NC(=O)[C@H](CO)NC(=O)CNC(=O)[C@H](CCC(=O)O)NC(=O)C(C)(C)NC(=O)[C@@H](N)Cc1c[nH]cn1)[C@@H](C)O)C(C)C)C(=O)N[C@@H](C)C(=O)N[C@@](C)(Cc1ccccc1)C(=O)N[C@H](C(=O)N[C@H](C(=O)N[C@@](C)(CCCCN)C(=O)NCC(=O)NCC(N)=O)C(C)C)C(C)C` [compound 28] (H-H[Aib]EGS[αMeF]TEDV[αMeS]S[αMeF]LEGEAA[αMeK]E[αMeF]IA[αMeF]VV[αMeK]GG-NH2; N-terminus assumed) the EC50 [3, 4] was 4620 pM and the pEC50 ([3]; cAMP activity, second determination (n2), read-out: Primary assay EC50 GLP-1R n2) was 8.33.

Reference: patent US20210221866A1, “PROTEASE-RESISTANT LIPIDATED GLP-1 ANALOGS” (MEDIMMUNE LIMITED, priority 2015, published 2021)
